Reference: patent publication US8415296B2, “Oxyntomodulin peptide analogue” (Eli Lilly and Company, priority 2009, dated 2013)
Marks after values point to notes of the source that are not given here.

Assays:
Type in all cases: in vivo
[1] = Food intake, body weight and body composition in diet-induced obese (DIO) mice; conditions: for reduction of cumulative food intake compared to the vehicle group: end of 2-week study; for Fat mass loss (g fat weight change for 14 days) / Overall weight loss (g weight change for 14 days) / Total food intake (g total for 14 days): mean ± SEM
Experimental: Three to four months old male diet-induced obese (DIO) mice are individually housed in a temperature-controlled (24° C.) facility with a 12 hour light/dark cycle (lights on 22:00), and have free access to food and water. After 2 weeks acclimation to the facility, mice are randomized to treatment groups (n=8-10/group), each group having similar mean body weight and fat mass. Mice are subcutaneously (sc) injected with vehicle solution and weighed for 2 days to acclimate them to the procedures.
Body weight and the weight of food plus the hopper are measured at the same time. Food consumed in the preceeding 24 hours is calculated by subtracting current weight of food plus the hopper from that of the previous day. Absolute changes in body weight are calculated by subtracting the body weight of the animal prior to the first injection. On days 1 and 14 total fat mass is measured by nuclear magnetic resonance (NMR) using an Echo Medical System (Houston, Tex.) instrument. Fat free mass is calculated by subtracting fat mass from total body weight.

[2] = Oral glucose tolerance test in ob/ob mice; conditions: for Glucose AUC, MEAN: OGTT, 0 to 120 min
Experimental: (§1) Two to three months old male ob/ob mice are individually housed in a temperature-controlled (24° C.) facility with a 12 hour light/dark cycle (lights on 2200 hours), and have free access to food and water. After at least 2 weeks of acclimation to the facility, 3-hours fasting blood glucose is measured by tail vein bleeding at 9 AM. Mice with blood glucose under 180 mg/dL are not used. Remaining animals are randomized to treatment groups (N=7/group), each group having similar average blood glucose level. The mice are given access to food until the time of injection. […] Food is removed at the time of injection. An OGTT (Table 7) or IPGTT (Table 8) is performed 16 hours after the peptide injection. At time 0, animals are given 2 g/kg dextrose by oral gavage (Table 7) or intraperitoneal injection (Table 8). Blood is collected by tail vein bleeding at 0, 15, 30, 60 and 120 minutes after glucose challenge. Blood glucose concentration is measured by glucometer.

[3] = Intraperitoneal glucose tolerance test in lean mice; conditions: IPGTT; for Glucose AUC, MEAN: 0 to 30 min; for Insulin AUC, MEAN: plasma insulin 0 to 30 min
Experimental: Nine week old male C57BL/6 mice are used in the study Animals are randomized into groups based on fed body weight. […] Food is removed at the time of injection of peptide or vehicle. At time 0, animals are given 2 g/kg dextrose by IP injection. Blood is collected by tail vein bleeding at 0, 3, 6, 12 and 30 minutes after glucose challenge. Glucose concentration is measured by glucometer. Insulin is measure by Mesoscale.

[4] = Intraperitoneal glucose tolerance test in ob/ob mice; conditions: IPGTT, 0 to 120 min, 7.5 nmole/kg 16 hours before
Experimental: as §1

[5] = Oral glucose tolerance test after 2-week treatment in DIO mice; conditions: for Glucose AUC, MEAN: oral glucose load 2 g/kg, 0 to 120 min
Experimental: (§2) Fifty-six hours after the fifth injection as described in Example 7 in DIO mice, mice are fasted for 16 hours prior to the start of the glucose tolerance test. At time 0, animals are given 2 g/kg dextrose by oral gavage (Table 3, Study 1) or intraperitoneal (IP) injection (Table 4, Study 2). Blood is collected by tail vein bleeding at 0, 15, 30, 60 and 120 minutes after glucose challenge. Glucose concentration is measured by glucometer.

[6] = Intraperitoneal glucose tolerance test after 2-week treatment in DIO mice; conditions: ip glucose load 2 g/kg, 0 to 120 min
Experimental: as §2

[7] = Study 1, DIO mice, 7.5 nmole/kg sc every 3 days
[8] = Study 1, DIO mice, 15 nmole/kg sc every 3 days
[9] = Study 1, DIO mice, 30 nmole/kg sc every 3 days
[10] = Study 2, DIO mice, 7.5 nmole/kg sc every 3 days
[11] = Study 2, DIO mice, 22.5 nmole/kg sc every 3 days

His-(D-Ser)-Gln-Gly-Thr-Phe-Thr-Ser-Asp-(1-Nal)-Ser-Lys-Tyr-Leu-Asp-Glu-Lys-Ala-Ala-Gln-Glu-Phe-Val-Gln-Trp-Leu-Leu-Asn-(Aib)-Ala-Arg-Asn-Arg-Asn-Asn-Ile-Ala-Cys(20 kDa PEG)-Cys(20 kDa PEG)
cumulative weight loss compared to the vehicle group ([1]; Study 1, 7.5 nmole/kg every 3 days, 2 weeks): about 6%
vehicle controlled cumulative weight loss ([1]; Study 1, 15 nmole/kg every 3 days, 2 weeks): 10%
reduction of cumulative food intake compared to the vehicle group ([1]; Study 1, 15 nmole/kg): 21%
vehicle controlled cumulative weight loss ([1]; Study 1, 30 nmole/kg every 3 days, 2 weeks): 15%
reduction of cumulative food intake compared to the vehicle group ([1]; Study 1, 30 nmole/kg): 27%
Fat mass loss (g fat weight change for 14 days) [1, 7]: -1.1 ± 0.3 g
Overall weight loss (g weight change for 14 days) [1, 7]: -1.7 ± 0.3 g
Total food intake (g total for 14 days) [1, 7]: 36.5 ± 1.2 g
Fat mass loss (g fat weight change for 14 days) [1, 8]: -2.7 ± 0.2 g
Overall weight loss (g weight change for 14 days) [1, 8]: -3.5 ± 0.3 g
Total food intake (g total for 14 days) [1, 8]: 31.4 ± 0.9 g
Fat mass loss (g fat weight change for 14 days) [1, 9]: -4.0 ± 0.3 g
Overall weight loss (g weight change for 14 days) [1, 9]: -5.6 ± 0.4 g
Total food intake (g total for 14 days) [1, 9]: 29.0 ± 1.3 g
Fat mass loss (g fat weight change for 14 days) [1, 10]: -1.6 ± 0.2 g
Overall weight loss (g weight change for 14 days) [1, 10]: -2.5 ± 0.3 g
Total food intake (g total for 14 days) [1, 10]: 33.3 ± 0.6 g
Fat mass loss (g fat weight change for 14 days) [1, 11]: -3.8 ± 0.2 g
Overall weight loss (g weight change for 14 days) [1, 11]: -5.2 ± 0.2 g
Total food intake (g total for 14 days) [1, 11]: 28.7 ± 0.6 g
decrease of body weight ([1]; Study 2, high dose (22.5 nmole/kg) every 3 days, 2 weeks): ~10%
decrease of body weight ([1]; Study 2, low dose (7.5 nmole/kg) every 3 days, 2 weeks): about 5%
Glucose AUC, MEAN ([2]; 7.5 nmole/kg 16 hours before): 12103* mg*min/dL
Glucose AUC, MEAN ([2]; 15 nmole/kg 16 hours before): 14837* mg*min/dL
blood glucose in ob/ob mice ([2]; single injection): normalized blood glucose
Glucose AUC, MEAN ([3]; 5 nmole/kg 16 hours before): 6287* mg*min/dL
Glucose AUC, MEAN ([3]; 15 nmole/kg 16 hours before): 6881* mg*min/dL
Insulin AUC, MEAN ([3]; 5 nmole/kg): 33.29* ng*min/mL
Insulin AUC, MEAN ([3]; 15 nmole/kg): 58.32* ng*min/mL
Glucose AUC, MEAN [4]: 16944* mg*min/dL
blood glucose at all time points before and after the oral glucose challenge vs vehicle ([5]; all doses): significantly lowered
Glucose AUC, MEAN ([5]; 7.5 nmole/kg): 13802* mg*min/dL
Glucose AUC, MEAN ([5]; 15 nmole/kg): 12668* mg*min/dL
Glucose AUC, MEAN ([5]; 30 nmole/kg): 13056* mg*min/dL
Glucose AUC, MEAN ([6]; 7.5 nmole/kg): 19198* mg*min/dL
Glucose AUC, MEAN ([6]; 22.5 nmole/kg): 15720* mg*min/dL
